In patent US9446151B2, “In vivo imaging of enzymatic activity” (Caliper Life Sciences, Inc., priority 2011, dated 2016):

Columns and labels:
[1] = tested on: MDA-MB-231-luc2 tumor metastases; settings: Nu/Nu mouse, three weeks after intracardiac injection of 1 million MDA-MB-231-luc2 cells; IVIS imaging
Procedure: A Nu/Nu mouse was intracardiacally injected with 1 million of MDA-MB-231-luc2 cells. At three weeks, the mouse was imaged with an IVIS spectrum following intraperitoneal injection of luciferin (150 mg/kg). […] At 24 hours after luciferin injection when the bioluminescence signal returned to a base line level, this mouse was injected intravenously with luminol.
As inflammation is involved in a broad range of disease process, including tumor development, the utility of the NAC compositions and methods was also tested for tumor detection. In a systemic metastases model through intracardiac injection of MDA-MB-231-luc tumor, metastatic tumor development in lungs and knee joints was also evaluated using NAC compositions. Briefly, a Nu/Nu mouse was injected intracardiacally with 1 million MDA-MB-231-luc2 tumor cells. At three weeks, the mouse was imaged with an IVIS spectrum following intraperitoneal injection of luciferin (150 mg/kg). At 24 hours after luciferin injection when the bioluminescence signal returned to a base line level, this mouse was injected intravenously with luminol.

[2] = tested on: free radical production in the pulmonary tissues; settings: LPS 1 mg/kg intratracheal; intravenous probe; imaging 5 minutes after injection; vs non-LPS control mice given luminol/Quantum dot 800 mixture
Procedure: Animals were divided into three groups of animals.
An acute inflammatory response in pulmonary tissues was induced by intratracheal delivery of LPS to mice. In particular, LPS was dissolved in sterile PBS to a concentration of 10 mg/ml. LPS (in 50 μl total volume) was delivered to mice intratracheally with a 22-gauge intubator. The final dose of LPS was 1 mg/kg. […] Imaging was performed at 5 minutes after injection.

For `O=C(O)[C@H]1CSC(c2nc3ccc(O)cc3s2)=N1` [luciferin], the “detection of tumor metastases (loci)” value [1] was “detected in the lungs, knee joints and cranial region”.
With `Nc1cccc2c(=O)[nH][nH]c(=O)c12` [luminol] the “increase of NAC / lung signal from the pulmonary tissues as compared to control mice” value [2] was “two” and the “detection of tumor metastases (loci)” value [1] was “Tumor metastasis at the knee joint was detected”.
